Source: article PMC6982966 (Molecules, 2019)
Where two headings read alike, the source gives them in different places.

Columns and labels:
human CK2 holoenzyme [1] = molecular target: T1, human CK2 holoenzyme (Homo sapiens, UniProt P68400); settings: recombinant human CK2, compounds published before, cited from earlier work; for Tested pIC50: pIC50 = -logIC50
T1 construct: made in house; host or cells: Escherichia coli

human CK2 holoenzyme [2] = molecular target: T1, human CK2 holoenzyme; experiment: biochemical; settings: newly synthesized indeno[1,2-b]indoles
MCF-7 cells = experiment: MTT cell viability assay; assay type: cell-based, human; settings: for reduction of cell viability: after 24 h and 48 h
Experimental: The effect of the four naphtho[2,3-b]furan-4,9-dione derivatives on cell viability was evaluated using an MTT assay with MCF-7 cells (human breast adenocarcinoma cell line). […]. It is important to note that some compounds with a naphtho[2,3-b]furan-4,9-dione backbone are known to have anticancer effects and are highly cytotoxic, and other natural naphtho[2,3-b]furan-4,9-dione derivatives, which are found in the lapacho (Tabebuia) tree, are known to have different biological activities, such as antibacterial, antifungal, anti-inflammatory, and antitumor activities.
Bars represent the mean values of three measurements (n = 3). Error bars illustrate the corresponding standard deviations (± SD).
The effect of CK2 inhibitors on the viability of MCF-7 cells was evaluated using an MTT assay. MCF-7 breast cancer cells (kindly provided by the Department of Clinical Radiology of the University Hospital Muenster, Germany) were cultured in RPMI 1640 medium containing GlutaMax (Life Technologies, Darmstadt, Germany) and 10% fetal calf serum. The MTT assay was performed in 96-well plates. Cells were seeded at a density of 1 × 10^5 cells per well, then incubated […] at 37 °C in a humidified atmosphere (5% CO2). After overnight incubation, the seeding medium was removed and replaced with fresh medium containing the inhibitor at 0.01, 0.1, 1, and 10 μM. DMSO at a final concentration of 1% served as a control. Afterward, the MTT reagent (Sigma Aldrich, Darmstadt, Germany) was added at a final concentration of 0.5 mg/mL. After incubation for 2 h at 37 °C, the medium was discarded and 200 µL DMSO was added for the solubilization of the formazan. After mixing, the absorption was determined at 570 nm with a reference wavelength of 630 nm using a microplate reader. CK2 inhibitors were tested in triplicate, and the experiments were repeated three times.

[3] = Tested pIC50, recombinant human CK2, pIC50 = -logIC50
[4] = Tested IC50, recombinant human CK2
[5] = recombinant human CK2, read-out: Tested IC50
[6] = recombinant human CK2, pIC50 = -logIC50, read-out: Tested pIC50 (converted)

T1 sequence (P68400 whole entry): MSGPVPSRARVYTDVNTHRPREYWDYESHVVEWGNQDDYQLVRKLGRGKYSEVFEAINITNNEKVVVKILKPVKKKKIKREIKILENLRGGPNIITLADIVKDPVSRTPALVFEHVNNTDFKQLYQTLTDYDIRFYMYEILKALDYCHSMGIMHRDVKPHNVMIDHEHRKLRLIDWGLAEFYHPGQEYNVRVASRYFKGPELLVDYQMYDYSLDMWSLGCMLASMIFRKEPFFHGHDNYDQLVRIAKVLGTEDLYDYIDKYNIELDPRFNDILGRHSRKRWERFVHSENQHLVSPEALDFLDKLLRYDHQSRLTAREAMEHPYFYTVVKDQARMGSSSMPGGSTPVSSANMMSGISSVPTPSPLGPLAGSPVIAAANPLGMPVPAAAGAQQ
T1 sequence (P67870 whole entry partner): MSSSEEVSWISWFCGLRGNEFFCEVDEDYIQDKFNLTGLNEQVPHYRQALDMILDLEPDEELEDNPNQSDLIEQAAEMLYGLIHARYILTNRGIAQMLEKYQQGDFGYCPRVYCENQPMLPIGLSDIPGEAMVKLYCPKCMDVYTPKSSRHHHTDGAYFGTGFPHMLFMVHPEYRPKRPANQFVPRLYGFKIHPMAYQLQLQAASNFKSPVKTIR

Q: For `COc1ccccc1CCn1c2c(c3c1-c1ccccc1C3=O)C(=O)CCC2` [4e], which IC50 (human CK2 holoenzyme [1]; read-out: Tested IC50) is on record?
A: 1.4 µM

Q: And the “Tested pIC50” value (human CK2 holoenzyme [1])?
A: 5.8540

Q: What does the source list for `Cc1cccc2c1C(=O)c1c3c(n(C(C)C)c1-2)CCCC3=O` [4h, 5-isopropyl-1-methyl-5,6,7,8-tetrahydroindeno[1,2-b]indole-9,10-dione]?
A: IC50 (human CK2 holoenzyme [2]; [3]): 0.11 µM; melting point: 235 °C

Q: Which IC50 (human CK2 holoenzyme [2]; [3]) does the source give for `CC(C)n1c2c(c3c1-c1cccc(C(F)(F)F)c1C3=O)C(=O)CCC2` [4i] here?
A: 0.21 µM

Q: For `CC(C)n1c2c(c3c1-c1cccc(Br)c1C3=O)C(=O)CCC2` [4j], which IC50 (human CK2 holoenzyme [2]; [3]) is on record?
A: 0.14 µM

Q: With `COC(=O)COc1ccc2c(c1)-c1c(c3c(n1C(C)C)CCCC3=O)C2=O` [4p] as the compound, how does the IC50 (human CK2 holoenzyme [2]; [4]) read?
A: 1.52 µM

Q: What about the IC50 (human CK2 holoenzyme [2]; [3]) of the same compound?
A: 1.52 µM

Q: For `CC(=O)Oc1ccc2c(c1)-c1c(c3c(n1C(C)C)CCCC3=O)C2=O` [4q], which IC50 (human CK2 holoenzyme [2]; [4]) is on record?
A: 3.21 µM

Q: And the IC50 (human CK2 holoenzyme [2]; [3])?
A: 3.21 µM

Q: Which IC50 (human CK2 holoenzyme [2]; [3]) does the source give for `COC(=O)CCCOc1ccc2c(c1)-c1c(c3c(n1C(C)C)CCCC3=O)C2=O` [4r] here?
A: 0.52 µM

Q: Which IC50 (human CK2 holoenzyme [2]; [3]) does the source give for `CC(C)n1c2c(c3c1-c1cc(OCCCC(=O)O)ccc1C3=O)C(=O)CCC2` [4s] here?
A: 1.51 µM

Q: For `CC(C)n1c2c(c3c1-c1cc(Br)cc(Br)c1C3=O)C(=O)CCC2` [4w, 1,3-dibromo-5-isopropyl-5,6,7,8-tetrahydroindeno[1,2-b]indole-9,10-dione], which IC50 (human CK2 holoenzyme [2]; [3]) is on record?
A: 0.11 µM

Q: What about the melting point of the same compound?
A: 276 °C

Q: With `CC(C)C1CC(=O)c2c3c(n(C(C)C)c2C1)-c1ccccc1C3=O` (centres unmarked) [4y] as the compound, how does the “Tested pIC50” value (human CK2 holoenzyme [1]) read?
A: 6.2150

Q: With `O=C1c2ccccc2-c2[nH]c3cccc(O)c3c21` [5a] as the compound, how does the IC50 (human CK2 holoenzyme [2]; [5]) read?
A: 2.22 µM

Q: What about the IC50 (human CK2 holoenzyme [2]; [6]) of the same compound?
A: 2.22 µM

Q: For `O=c1ccc(=O)c2c1[nH]c1c3ccccc3c(=O)c12` [6a], which IC50 (human CK2 holoenzyme [2]; [5]) is on record?
A: 1.78 µM

Q: What about the IC50 (human CK2 holoenzyme [2]; [6]) of the same compound?
A: 1.78 µM

Q: Which results are given for `Cn1c2c(=O)ccc(=O)c2c2c(=O)c3ccccc3c21` [6b]?
A: IC50 (human CK2 holoenzyme [2]; [4]): 1.12 µM; IC50 (human CK2 holoenzyme [2]; [3]): 1.12 µM

Q: For `CCn1c2c(=O)ccc(=O)c2c2c(=O)c3ccccc3c21` [6c], which IC50 (human CK2 holoenzyme [2]; [5]) is on record?
A: 1.58 µM

Q: With `CC(C)n1c2c(=O)ccc(=O)c2c2c(=O)c3c(Br)cccc3c21` [6d] as the compound, how does the IC50 (human CK2 holoenzyme [2]; [5]) read?
A: 1.35 µM

Q: What about the IC50 (human CK2 holoenzyme [2]; [6]) of the same compound?
A: 1.35 µM

Q: For `COc1ccc2c(=O)c3c4c(=O)ccc(=O)c4n(C(C)C)c3c2c1` [6e], which IC50 (human CK2 holoenzyme [2]; [4]) is on record?
A: 4.16 µM

Q: And the IC50 (human CK2 holoenzyme [2]; [3])?
A: 4.16 µM

Q: Which IC50 (human CK2 holoenzyme [2]; [5]) does the source give for `COc1cccc2c(=O)c3c4c(=O)ccc(=O)c4n(C(C)C)c3c12` [6f] here?
A: 0.87 µM

Q: What about the IC50 (human CK2 holoenzyme [2]; [6]) of the same compound?
A: 0.871 µM

Q: Which “Tested pIC50” value (human CK2 holoenzyme [1]) does the source give for `Cc1cc(=O)c2c3c(=O)c4ccccc4c3n(C(C)C)c2c1=O` [6g] here?
A: 6.3660

Q: Which “reduction of cell viability” value (MCF-7 cells; MCF-7, 10 µM) does the source give for `Cc1oc2c(c1C(=O)NCCC(C)C)C(=O)c1ccccc1C2=O` [compound 00082235, N-isopentyl-2-methyl-4,9-dioxo-4,9-dihydronaphtho[2,3-b]furan-3-carboxamide] here?
A: more than 90%

Q: With `Cc1oc2c(c1C(=O)N1CCOCC1)C(=O)c1ccccc1C2=O` [compound 01236034, 2-methyl-3(morpholine-4-carbonyl)naphto[2,3-b] furan-4,9-dione] as the compound, how does the “cell viability reduced to” value (MCF-7 cells; MCF-7, 10 µM, after 48 h) read?
A: 60%

Q: Which “reduction of cell viability” value (MCF-7 cells; MCF-7, 1 µM) does the source give for `Cc1oc2c(c1C(=O)NCCCn1ccnc1)C(=O)c1ccccc1C2=O` [compound 01893208, 1-(3-(2-methyl-4,9-dioxo-4,9-dihydronaphtho[2,3-b]furan-3-carboxamido)propyl)-1H-imidazol-3-ium] here?
A: around 90%

Q: What about the “reduction of cell viability” value (MCF-7 cells; MCF-7, 10 µM) of the same compound?
A: more than 90%

Q: Which “reduction of cell viability” value (MCF-7 cells; MCF-7, 1 µM) does the source give for `Cc1oc2c(c1C(=O)NCc1cccnc1)C(=O)c1ccccc1C2=O` [compound 37867960, 2-methyl-4,9-dioxo-N-(pyridin-3-ylmethyl)-4,9-dihydronaphtho[2,3-b]furan-3-carboxamide] here?
A: around 90%

Q: And the “reduction of cell viability” value (MCF-7 cells; MCF-7, 10 µM)?
A: more than 90%
